Results on 1 molecule are retold here after patent publication US20200278355A1, “CONJUGATED PROTEINS AND USES THEREOF” (THE SCRIPPS RESEARCH INSTITUTE, priority 2017, published 2020).

One assay addresses T1, TXNDC12 (Homo sapiens, UniProt O95881).
T1 construct: endogenous in cells; host or cells: H460
The experiment in a line: ABPP-SILAC BPK-29yne competition in H460 cells: TXNDC12. Type of assay: cell-based. The note with it: 20 μM. The method, then: Isotopically labeled H460 cell lines were generated as described above. Light and heavy cells were treated with compounds (20 μM) or DMSO, respectively, for 3 h, followed by labeling with the BPK-29yne (5 μM) for 30 min. Cells were washed once ice-cold PBS and lysed in 1% Triton 100-X dissolved in PBS with protease inhibitors (Sigma) by sonication. Lysate was adjusted to 1.5 mg ml^−1 in 500 μL. Samples were conjugated by CuAAC to Biotin-PEG4-azide (5 μL of 10 mM stocks in DMSO, final concentration=100 μM). CuAAC “click” mix contained TCEP, TBTA ligand and CuSO4 as detailed for isoTOP-ABPP sample preparation. Samples were further processed as detailed in: isoTOP-ABPP streptavidin enrichment and isoTOP-ABPP trypsin TEV digestion with the following exception: after overnight incubation at 37° C. with trypsin, tryptic digests were separated from the beads with Micro Bio-Spin columns (Bio-Rad) by centrifugation (1,000×g, 1 min). Beads were rinsed once with water (200 μL) and combined with tryptic digests. […]
The MS2 spectra data were extracted and searched using RAW Convertor and ProLuCID algorithm as described in isoTOP-ABPP peptide and protein quantification. […] Ratios of heavy/light (DMSO/test compound) peaks were calculated using in-house CIMAGE software. […] The mean R values and standard deviation for multiple biological experiments were calculated from the average ratios from each replicate. […]

For a further assay, the system named is KEAP1-WT NSCLC cells. Description: Anchorage-independent growth, KEAP1-WT NSCLC cells. Type of assay: cell-based, human. The note with it: 5 μM. The source says: Based on its in situ activity (FIG. 6D and FIG. 12A, 12G) and selectivity (FIGS. 6A, 6B), BPK-29 was chosen for additional biological studies. […] Exogenous expression of […] the growth inhibition caused by BPK-29.

T1 sequence (O95881 27-172): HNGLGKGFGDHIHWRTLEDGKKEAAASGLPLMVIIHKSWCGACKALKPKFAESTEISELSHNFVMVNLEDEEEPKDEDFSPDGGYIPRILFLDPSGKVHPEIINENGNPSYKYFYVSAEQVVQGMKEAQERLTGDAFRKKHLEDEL

Consider `O=C(c1ccc(N2CCOCC2)cc1)N1CCCC(N(Cc2ccccc2)C(=O)CCl)CC1` (centres unmarked) [BPK-29, N-benzyl-2-chloro-N-(1-(4-morpholinobenzoyl)azepan-4-yl)acetamide], for which the “BPK-29-competed BPK-29yne analysis” value on TXNDC12 is “Yes (Competed defined as showing R value ≥ 2.5 at 20 μM of test compound)”. In the assay on KEAP1-WT NSCLC cells, the anchorage-independent growth entry was “minimally affected”.
